Experimental data: ChEMBL document CHEMBL1127622, “Tyrosine kinase inhibitors. 2. Synthesis of 2,2'-dithiobis(1H-indole-3-alkanamides) and investigation of their inhibitory activity against epidermal growth factor receptor and pp60v-src protein tyrosine kinases” (J Med Chem, 1994)

tested on: NIH3T3; assay: Compound was tested for the concentration necessary to inhibit swiss 3T3 Mouse Fibroblast cell growth rate by 50%.; assay type: functional, cell-based

Row | Structure (SMILES) | IC50
1 | O=C(CCc1c(SSc2[nH]c3ccccc3c2CCC(=O)NCc2ccccc2)[nH]c2ccccc12)NCc1ccccc1 | 5.9 µM
2 | NC(Cc1c(SSc2[nH]c3ccccc3c2CC(N)C(=O)NCc2ccccc2)[nH]c2ccccc12)C(=O)NCc1ccccc1 (configuration not stated) | 5.3 µM
3 | O=C(Cc1c(SSc2[nH]c3ccccc3c2CC(=O)NCc2ccccc2)[nH]c2ccccc12)NCc1ccccc1 | 2.7 µM
4 | O=C(O)CCc1c(SSc2[nH]c3ccccc3c2CCC(=O)O)[nH]c2ccccc12 | 60 µM

target: Epidermal growth factor receptor (Homo sapiens, UniProt P00533); assay: Inhibition of the tyrosine kinase activity of the human epidermal growth factor receptor (EGFR)
Sequence (P00533 whole entry): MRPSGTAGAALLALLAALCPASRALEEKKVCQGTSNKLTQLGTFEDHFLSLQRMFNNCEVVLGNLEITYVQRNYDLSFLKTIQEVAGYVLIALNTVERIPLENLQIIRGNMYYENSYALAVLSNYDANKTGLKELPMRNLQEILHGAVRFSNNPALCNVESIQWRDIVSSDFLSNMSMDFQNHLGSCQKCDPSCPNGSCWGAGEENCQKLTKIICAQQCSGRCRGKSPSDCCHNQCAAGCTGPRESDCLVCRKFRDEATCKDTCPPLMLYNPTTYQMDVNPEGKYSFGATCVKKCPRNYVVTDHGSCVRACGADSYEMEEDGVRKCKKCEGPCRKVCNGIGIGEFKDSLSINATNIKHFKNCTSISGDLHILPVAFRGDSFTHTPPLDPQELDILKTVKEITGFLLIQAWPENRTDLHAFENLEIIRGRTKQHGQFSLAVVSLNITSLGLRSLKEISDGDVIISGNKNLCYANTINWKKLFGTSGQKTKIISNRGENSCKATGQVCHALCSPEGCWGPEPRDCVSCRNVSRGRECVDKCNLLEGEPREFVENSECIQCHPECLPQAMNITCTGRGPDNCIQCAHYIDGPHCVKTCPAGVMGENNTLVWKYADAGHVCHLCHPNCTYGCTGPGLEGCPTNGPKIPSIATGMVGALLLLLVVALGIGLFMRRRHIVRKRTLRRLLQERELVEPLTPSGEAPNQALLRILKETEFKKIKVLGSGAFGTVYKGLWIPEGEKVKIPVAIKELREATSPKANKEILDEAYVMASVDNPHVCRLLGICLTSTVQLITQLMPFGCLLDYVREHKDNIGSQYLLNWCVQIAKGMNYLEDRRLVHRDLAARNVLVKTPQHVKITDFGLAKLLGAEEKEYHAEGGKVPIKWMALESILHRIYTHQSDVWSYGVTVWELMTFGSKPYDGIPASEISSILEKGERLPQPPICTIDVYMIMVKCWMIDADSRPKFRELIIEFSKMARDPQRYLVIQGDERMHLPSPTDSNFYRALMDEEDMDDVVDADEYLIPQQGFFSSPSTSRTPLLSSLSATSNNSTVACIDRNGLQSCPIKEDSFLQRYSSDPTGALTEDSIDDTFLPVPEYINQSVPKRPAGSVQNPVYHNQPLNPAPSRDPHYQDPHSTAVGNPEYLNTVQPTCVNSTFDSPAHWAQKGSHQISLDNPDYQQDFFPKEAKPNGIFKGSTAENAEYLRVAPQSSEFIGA

Row | IC50 | Structure (SMILES)
5 | 24 µM | O=C(CCc1c(SSc2[nH]c3ccccc3c2CCC(=O)NCCc2ccccc2)[nH]c2ccccc12)NCCc1ccccc1
6 | 100 µM | COC(=O)c1ccc(CNC(=O)CCc2c(SSc3[nH]c4ccccc4c3CCC(=O)NCc3ccc(C(=O)OC)c(O)c3)[nH]c3ccccc23)cc1O
7 | 100 µM | O=C(CCC1C(=S)Nc2ccccc21)NCc1ccccc1 (configuration not stated)
8 | 7.4 µM | O=C(CCc1c(SSc2[nH]c3ccccc3c2CCC(=O)NCc2ccc(C(=O)O)cc2)[nH]c2ccccc12)NCc1ccc(C(=O)O)cc1
9 | 100 µM | O=C(CC1C(=S)Nc2ccccc21)NCc1ccccc1 (configuration not stated)
10 | 100 µM | O=C(CCCc1c(SSc2[nH]c3ccccc3c2CCCC(=O)NCc2ccccc2)[nH]c2ccccc12)NCc1ccccc1
11 | 25 µM | O=C(CCc1c(SSc2[nH]c3ccccc3c2CCC(=O)Nc2ccccc2)[nH]c2ccccc12)Nc1ccccc1
12 | 47 µM | N#CCCc1c(SSc2[nH]c3ccccc3c2CCC#N)[nH]c2ccccc12
13 | 14 µM | O=C(NCc1ccccc1)C(O)Cc1c(SSc2[nH]c3ccccc3c2CC(O)C(=O)NCc2ccccc2)[nH]c2ccccc12 (configuration not stated)
14 | 7.6 µM | NC(Cc1c(SSc2[nH]c3ccccc3c2CC(N)C(=O)NCc2ccccc2)[nH]c2ccccc12)C(=O)NCc1ccccc1 (configuration not stated)
15 | 9.4 µM | CNC(=O)CCc1c(SSc2[nH]c3ccccc3c2CCC(=O)NC)[nH]c2ccccc12
16 | 51 µM | CC(=O)NC(Cc1c(SSc2[nH]c3ccccc3c2CC(NC(C)=O)C(=O)NCc2ccccc2)[nH]c2ccccc12)C(=O)NCc1ccccc1 (configuration not stated)
17 | 8.5 µM | O=C(CCc1c(SSc2[nH]c3ccccc3c2CCC(=O)NCc2ccc(C(=O)O)c(O)c2)[nH]c2ccccc12)NCc1ccc(C(=O)O)c(O)c1
18 | 32 µM | N#CCc1c(SSc2[nH]c3ccccc3c2CC#N)[nH]c2ccccc12
19 | 28 µM | CC(=O)OC(Cc1c(SSc2[nH]c3ccccc3c2CC(OC(C)=O)C(=O)NCc2ccccc2)[nH]c2ccccc12)C(=O)NCc1ccccc1 (configuration not stated)
20 | > 100 µM | O=C(NCc1ccccc1)C(Cc1c(SSc2[nH]c3ccccc3c2CC(NC(=O)C(F)(F)F)C(=O)NCc2ccccc2)[nH]c2ccccc12)NC(=O)C(F)(F)F (configuration not stated)
21 | 12 µM | CN(C)C(=O)CCc1c(SSc2[nH]c3ccccc3c2CCC(=O)N(C)C)[nH]c2ccccc12

Row | Structure (SMILES) | IC50
22 | O=[N+]([O-])CCc1c(SSc2[nH]c3ccccc3c2CC[N+](=O)[O-])[nH]c2ccccc12 | 89 µM
